Data: patent publication US11220504B2, “Pyrrolo[3,2-d] pyrimidine derivatives for the treatment of viral infections and other diseases” (JANSSEN SCIENCES IRELAND UNLIMITED COMPANY, priority 2012, dated 2022)

How the values were obtained:
[1] = target: T1, human TLR7 (Homo sapiens, UniProt Q9NYK1); test: TLR7 cellular reporter assay (HEK293, NFκB-luc); type: cell-based; settings: HEK293 cells transfected with CMV-TLR7 and NFκB-luc, 6 hours incubation; lowest effective concentration
T1 construct: expressed in transfected cells; host or cells: HEK293 cells, transient transfection with CMV-TLR7 plasmid and NFκB-luc plasmid
T1 sequence (Q9NYK1 27-1049): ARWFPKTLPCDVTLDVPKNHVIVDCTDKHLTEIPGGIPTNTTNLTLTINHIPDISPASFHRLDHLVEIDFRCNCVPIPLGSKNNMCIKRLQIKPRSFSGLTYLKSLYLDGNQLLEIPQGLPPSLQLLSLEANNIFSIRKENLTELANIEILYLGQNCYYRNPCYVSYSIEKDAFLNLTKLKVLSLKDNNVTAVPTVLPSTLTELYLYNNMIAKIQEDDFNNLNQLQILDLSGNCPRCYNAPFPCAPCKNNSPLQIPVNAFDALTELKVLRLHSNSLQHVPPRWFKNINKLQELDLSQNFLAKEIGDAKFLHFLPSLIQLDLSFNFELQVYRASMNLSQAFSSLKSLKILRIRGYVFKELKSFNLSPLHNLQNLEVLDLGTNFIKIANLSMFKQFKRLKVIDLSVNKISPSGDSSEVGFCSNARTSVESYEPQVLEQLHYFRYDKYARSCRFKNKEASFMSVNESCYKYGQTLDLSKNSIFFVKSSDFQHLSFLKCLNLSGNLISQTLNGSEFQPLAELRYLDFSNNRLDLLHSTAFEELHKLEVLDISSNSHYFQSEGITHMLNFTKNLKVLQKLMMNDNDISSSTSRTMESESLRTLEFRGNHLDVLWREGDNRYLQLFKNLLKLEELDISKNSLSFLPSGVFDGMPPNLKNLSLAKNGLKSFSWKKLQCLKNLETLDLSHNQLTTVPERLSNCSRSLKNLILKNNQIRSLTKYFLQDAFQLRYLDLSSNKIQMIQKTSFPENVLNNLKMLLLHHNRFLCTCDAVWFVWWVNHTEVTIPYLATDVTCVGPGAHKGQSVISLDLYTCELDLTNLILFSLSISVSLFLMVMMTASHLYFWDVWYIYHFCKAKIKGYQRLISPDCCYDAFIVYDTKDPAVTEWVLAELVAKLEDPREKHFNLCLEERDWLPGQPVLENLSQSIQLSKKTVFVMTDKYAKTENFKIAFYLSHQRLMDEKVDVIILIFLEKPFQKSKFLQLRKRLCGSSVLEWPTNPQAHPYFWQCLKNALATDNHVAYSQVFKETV
In short: (§1)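 HEK293 cells transiently transfected with receptor expression vector plus NFκB-luciferase reporter, exposed to compound (added in 4% DMSO) for 6 hours at 37° C, 5% CO2. Luciferase activity measured by luminescence; dose-response curves from quadruplicate measurements.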

[2] = target: T2, human TLR8 (Homo sapiens, UniProt Q9NR97); test: TLR8 cellular reporter assay (HEK293, NFκB-luc); type: cell-based; settings: HEK293 cells transfected with CMV-TLR8 and NFκB-luc, 6 hours incubation; lowest effective concentration
T2 construct: expressed in transfected cells; host or cells: HEK293 cells, transient transfection with TLR8 plasmid and NFκB-luc plasmid
T2 sequence (Q9NR97 27-1041): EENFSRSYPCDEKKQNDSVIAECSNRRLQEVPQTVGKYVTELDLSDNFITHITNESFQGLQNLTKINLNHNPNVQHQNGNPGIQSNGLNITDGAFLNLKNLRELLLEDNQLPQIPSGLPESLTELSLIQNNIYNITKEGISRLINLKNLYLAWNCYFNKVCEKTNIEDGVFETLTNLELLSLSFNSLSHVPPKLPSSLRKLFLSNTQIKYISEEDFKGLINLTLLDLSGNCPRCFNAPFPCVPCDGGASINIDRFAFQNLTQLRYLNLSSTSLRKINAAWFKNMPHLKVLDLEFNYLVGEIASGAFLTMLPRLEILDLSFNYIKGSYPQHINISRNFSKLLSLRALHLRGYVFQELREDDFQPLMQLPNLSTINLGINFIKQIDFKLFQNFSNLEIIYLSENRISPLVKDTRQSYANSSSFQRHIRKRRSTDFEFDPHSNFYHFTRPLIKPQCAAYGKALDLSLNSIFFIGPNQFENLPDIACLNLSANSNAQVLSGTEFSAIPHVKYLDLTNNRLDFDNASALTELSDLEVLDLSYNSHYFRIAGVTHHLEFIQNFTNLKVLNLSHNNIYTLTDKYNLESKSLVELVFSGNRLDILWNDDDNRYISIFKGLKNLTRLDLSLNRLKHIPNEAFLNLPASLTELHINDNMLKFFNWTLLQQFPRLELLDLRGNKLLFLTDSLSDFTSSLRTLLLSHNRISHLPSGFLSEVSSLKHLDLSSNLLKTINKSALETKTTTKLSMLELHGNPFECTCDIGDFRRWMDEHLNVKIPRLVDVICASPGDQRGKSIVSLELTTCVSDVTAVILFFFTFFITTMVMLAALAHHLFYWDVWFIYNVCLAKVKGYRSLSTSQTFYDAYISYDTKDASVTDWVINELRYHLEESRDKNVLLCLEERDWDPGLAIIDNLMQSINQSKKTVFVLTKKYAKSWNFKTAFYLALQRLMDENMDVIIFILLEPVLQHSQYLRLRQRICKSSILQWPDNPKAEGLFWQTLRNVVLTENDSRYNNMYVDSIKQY
In short: as §1

[3] = tested on: interferon-stimulated responsive elements (ISRE); test: Activation of ISRE promoter elements by conditioned media from PBMC (HEK-ISREluc); type: cell-based, human; settings: Homo sapiens; conditioned media from PBMC transferred to HEK-ISREluc cells, 24 hours; lowest effective concentration; read-out: PBMC LEC
In short: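 Human PBMCs (≥2 donors, RPMI + 10% human AB serum, 2×10^5 cells/well) incubated overnight with compound; supernatant transferred to HEK293 cells stably carrying pISRE-Luc for 24 h, then luciferase read. LEC = compound concentration on PBMCs giving luciferase signal at least two-fold above assay SD; recombinant IFN-α-2a standard.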

SMILES	TLR7 LEC [1]	TLR8 LEC [2]	minimal effective concentration [3]
CCCC(C)Nc1nc(N)nc2ccn(Cc3ccccc3F)c12 (stereo not drawn) [Compound 74]	0.10 µM	>25 µM	0.04 µM
CCCC[C@@H](CCO)Nc1nc(N)nc2ccn(Cc3ccccc3F)c12 [Compound 76]	0.01 µM	4.09 µM	0.007 µM
CCCC[C@@H](CCO)Nc1nc(N)nc2ccn(Cc3ccc(OC)cc3)c12 [Compound 77]	0.008 µM	2.62 µM	0.002 µM
CCCC(C)Nc1nc(N)nc2ccn(Cc3ccccc3OC)c12 (stereo not drawn) [Compound 79]	0.004 µM	0.94 µM	0.001 µM
CCC[C@@H](CCO)Nc1nc(N)nc2ccn(Cc3ccccc3F)c12 [Compound 81]	0.01 µM	22.02 µM	0.002 µM
CCC[C@@H](CCO)Nc1nc(N)nc2ccn(CC3CCC3)c12 [Compound 82]	0.07 µM	0.57 µM	0.01 µM
CCCC[C@@H](CCO)Nc1nc(N)nc2ccn(CC3CCC3)c12 [Compound 84]	0.04 µM	1.14 µM	0.01 µM
CCC[C@@H](CCO)Nc1nc(N)nc2ccn(Cc3cscn3)c12 [Compound 85]	0.03 µM	10.14 µM	0.002 µM
CCCCNc1nc(N)nc2cc(F)n(Cc3ccccc3)c12 [Compound 86]	1.63 µM	>25 µM	0.47 µM
CCCC[C@@H](CCO)Nc1nc(N)nc2ccn(Cc3cscn3)c12 [Compound 88]	0.01 µM	2.46 µM	0.0006 µM
Cc1cccc(Cn2ccc3nc(N)nc(NCc4cc(C)on4)c32)n1 [Compound 90]	0.03 µM	>25 µM	0.01 µM
CCCC[C@@H](CCO)Nc1nc(N)nc2ccn(CC3CCCO3)c12 (stereo partly drawn) [Compound 91]	0.05 µM	2.17 µM	0.02 µM
CCCCNc1nc(N)nc2c(F)cn(Cc3ccccc3)c12 [Compound 93]	0.26 µM	>25 µM	0.12 µM
CCCC[C@@H](CCO)Nc1nc(N)nc2c(F)cn(Cc3ccccc3)c12 [Compound 95]	0.01 µM	3.26 µM	0.007 µM
CCCCNc1nc(N)nc2ccn(Cc3c(OC)cccc3OC)c12 [Compound 97]	<0.01 µM	0.23 µM	0.001 µM

The next lines start with results.

TLR7 LEC [1]	TLR8 LEC [2]	SMILES	minimal effective concentration [3]
0.04 µM	>25 µM	CCCC(C)Nc1nc(N)nc2ccn(Cc3ccc(OC)cc3)c12 (stereo not drawn) [Compound 75]	0.04 µM
0.0004 µM	0.5577 µM	CCCC[C@@H](CCO)Nc1nc(N)nc2ccn(Cc3ccccc3OC)c12 [Compound 78]	< 0.0004 µM
<0.0006 µM	0.689 µM	CCC[C@@H](CCO)Nc1nc(N)nc2ccn(Cc3ccccc3OC)c12 [Compound 80]	< 0.0004 µM
1.57 µM	>25 µM	CCCCn1ccc2nc(N)nc(NCc3ccccc3)c21 [Compound 83]	2.3 µM
0.01 µM	>25 µM	CCC[C@@H](CCO)Nc1nc(N)nc2ccn(CC3CCCCC3)c12 [Compound 87]	0.008 µM
0.10 µM	4.46 µM	CCC[C@@H](CCO)Nc1nc(N)nc2ccn(CC3CCCO3)c12 (stereo partly drawn) [Compound 92]	0.02 µM
0.01 µM	>25 µM	CCC[C@@H](CCO)Nc1nc(N)nc2c(F)cn(Cc3ccccc3)c12 [Compound 94]	0.01 µM
